Results: article PMC6247689, “Determination of the volatile and polyphenol constituents and the antimicrobial, antioxidant, and tyrosinase inhibitory activities of the bioactive compounds from the by-product of Rosa rugosa Thunb. var. plena Regal tea” (BMC Complementary and Alternative Medicine, 2018)
≈ marks a conversion by molar mass, not a printed value.

Molecular target: mushroom tyrosinase
Test: Tyrosinase inhibitory activity (spectrophotometric, DOPA substrate)
Format: biochemical
Details: pH 6.8, 37 °C, 15 min, positive control = kojic acid
Description: The reaction mixture was vortexed and maintained at 37 °C for 15 min, and then the absorption maximum of dopachrome (set at 479 nm) was measured using a microplate reader (Molecular Devices, Sunnyvale, California, USA). The tests were performed in triplicate, and the value of tyrosinase inhibition activity was calculated as described above.

SMILES	Tyrosinase inhibition IC50
C[C@@H]1O[C@@H](OC[C@H]2O[C@@H](Oc3c(-c4ccc(O)c(O)c4)oc4cc(O)cc(O)c4c3=O)[C@H](O)[C@@H](O)[C@@H]2O)[C@H](O)[C@H](O)[C@H]1O [Rutin]	0.856 ± 0.014 µg/mL
CC(C)=CCCC(C)CCO (centres unmarked) [Citronellol]	825 ± 31 a μg/mL

Same assay, conditions: pH 6.8, 37 °C, 15 min, positive control = kojic acid, listed as rutin

SMILES	Tyrosinase inhibition IC50 [µg/mL]
C[C@@H]1O[C@@H](OC[C@H]2O[C@@H](Oc3c(-c4ccc(O)c(O)c4)oc4cc(O)cc(O)c4c3=O)[C@H](O)[C@@H](O)[C@@H]2O)[C@H](O)[C@H](O)[C@H]1O [Rutin]	< 1

Tested on: not listed separately
Test: DPPH radical scavenging activity
Details: 30 min in the dark, 517 nm; positive control = ascorbic acid
Description: The antioxidant activity of RFCS and the standards were evaluated by DPPH radical scavenging activity using a slightly modified version of a previously reported method. […] Aliquots (100 μL) of the supernatants were transferred into a 96-well microplate, and the absorbance of each was recorded at 517 nm using a Spectramax Plus384 UV-Vis spectrophotometer (Molecular Devices, Sunnyvale, California, USA). […] The IC50 values, which represent the concentrations of rose samples and standard substance at which 50% of the DPPH radical was inhibited, were determined. The tests were performed in triplicate, and the percentage of DPPH scavenging was calculated using the following equation. Inhibition%=H0-H/H0×100 H:Absorbance of RFCS and the standards;H0:Absorbance of the blank

SMILES	DPPH radical scavenging activity IC50
C[C@@H]1O[C@@H](OC[C@H]2O[C@@H](Oc3c(-c4ccc(O)c(O)c4)oc4cc(O)cc(O)c4c3=O)[C@H](O)[C@@H](O)[C@@H]2O)[C@H](O)[C@H](O)[C@H]1O [Rutin]	0.715 ± 0.017 c μg/mL
CC(C)=CCCC(C)CCO (centres unmarked) [Citronellol]	> 10000a μg/mL

Tested on: candida albicans (ATCC 10231)
Test: MIC and MFC, broth microdilution
Format: cell-based
Details: Candida albicans, ATCC10231; C. albicans, 37 °C, 24 h; read-out: MIC
Description: (§1) The antimicrobial activity was measured by the method described by Xue. All standard strains were obtained from the Guangdong Microbiology Culture Center (Guangzhou, China). Listeria ivanovii (ATCC 19119) was cultured in BHI, Salmonella enteritidis enteritidis (ATCC 14028) Staphylococcus aureus (ATCC 25923) and Escherichia coli (ATCC 25922) were cultured in nutrient agar (NA) for 24 h and at 37 °C. candida albicans (ATCC 10231) was cultured in PHB at 37 °C for 24 h. Propionibacterium acnes (ATCC 6919) and Fusobacterium nucleatum (ATCC 10953) were cultured in CDC agar at 37 °C for 48 h in a YQX-II anaerobic incubator (Shanghai, China). The final cell counts in l mL of broth were approximately 10^6 colony-forming units (CFU/mL). A 10 mg/mL solution of miconazole nitrate and hydrochloride tetracycline in water was used as a positive control against fungi and bacteria, respectly.
(§2) The MIC and MBC or MFC values were determined as described previously by Xue. Briefly, 100 μL dilutions (approximately 100,000 CFU/mL) of Staphylococcus aureus, Escherichia coli, Salmonella enteritidis enteritidis, Fusobacterium nucleatum, and Candida albicans in nutrient broth and Listeria ivanovii and Propionibacterium acnes in GMA broth were inoculated into microtiter plates. Then, 100 μL aliquots of the solutions of the test compound were added after a two-fold serial dilution with nutrient broth (from 2 mg/mL to 3 μg/mL). Broths with 5% (v/v) DMSO were used as controls. The petri dishes were incubated at 37 °C for 24 h with the exception of Propionibacterium acnes and Fusobacterium nucleatum, which were incubated at 37 °C for 48 h. The MIC was recorded as the lowest concentration of sample showing no detectable growth. To determine the MBC or MFC values for no bacterial or fungus growth, 10 μL of sub-inhibitory concentrations of the test compounds were incubated on CDC or GMA agar plates for 24 or 48 h. Every determination was carried out in triplicate.

SMILES	MIC [µg/mL]
C[C@@H]1O[C@@H](OC[C@H]2O[C@@H](Oc3c(-c4ccc(O)c(O)c4)oc4cc(O)cc(O)c4c3=O)[C@H](O)[C@@H](O)[C@@H]2O)[C@H](O)[C@H](O)[C@H]1O [Rutin]	500 (≈ 819 µM)
CC(C)=CCCC(C)CCO (centres unmarked) [Citronellol]	250 (≈ 1600 µM)

Same assay, conditions: Candida albicans, ATCC10231; C. albicans; read-out: MFC

SMILES	MFC [µg/mL]
C[C@@H]1O[C@@H](OC[C@H]2O[C@@H](Oc3c(-c4ccc(O)c(O)c4)oc4cc(O)cc(O)c4c3=O)[C@H](O)[C@@H](O)[C@@H]2O)[C@H](O)[C@H](O)[C@H]1O [Rutin]	1000 (≈ 1640 µM)
CC(C)=CCCC(C)CCO (centres unmarked) [Citronellol]	500 (≈ 3200 µM)

Tested on: not listed separately
Test: ABTS radical scavenging
Details: 30 °C, 30 min; positive control = Trolox
Description: The ABTS assay of RFCS was performed according to a modified version of a previously reported method. Briefly, the stock solutions were generated by mixing equal quantities of 7.4 mM ABTS^●+ solution and 2.6 mM potassium persulfate solution, and the mixture was incubated at room temperature for 12 h in the dark. Then, the solution was equilibrated with 1 mL of ABTS^●+ solution with 50% ethanol serving as a positive control. The absorbance of the solution at 734 nm was 1.17 ± 0.02 units. […] The mixture was mixed vigorously and incubated at 30 °C for 30 min. The absorbance was then measured at […] using the spectrophotometer. […] Inhibition%=Absorbance of blank-Absorbance of sample/Absorbance of blank×100

SMILES	ABTS radical scavenging activity IC50
C[C@@H]1O[C@@H](OC[C@H]2O[C@@H](Oc3c(-c4ccc(O)c(O)c4)oc4cc(O)cc(O)c4c3=O)[C@H](O)[C@@H](O)[C@@H]2O)[C@H](O)[C@H](O)[C@H]1O [Rutin]	0.621 ± 0.024 c μg/mL
CC(C)=CCCC(C)CCO (centres unmarked) [Citronellol]	> 10,000 a μg/mL

Tested on: Propionibacterium acnes (ATCC 6919)
Test: MIC and MBC, broth microdilution
Format: cell-based
Details: Cutibacterium acnes, ATCC6919; P. acnes, anaerobic, 37 °C, 48 h; read-out: MIC
Description: as §1, §2

SMILES	MIC [µg/mL]
C[C@@H]1O[C@@H](OC[C@H]2O[C@@H](Oc3c(-c4ccc(O)c(O)c4)oc4cc(O)cc(O)c4c3=O)[C@H](O)[C@@H](O)[C@@H]2O)[C@H](O)[C@H](O)[C@H]1O [Rutin]	125 (≈ 205 µM)
CC(C)=CCCC(C)CCO (centres unmarked) [Citronellol]	125 (≈ 800 µM)

Same assay, conditions: Cutibacterium acnes, ATCC6919; P. acnes; read-out: MBC

SMILES	MBC [µg/mL]
C[C@@H]1O[C@@H](OC[C@H]2O[C@@H](Oc3c(-c4ccc(O)c(O)c4)oc4cc(O)cc(O)c4c3=O)[C@H](O)[C@@H](O)[C@@H]2O)[C@H](O)[C@H](O)[C@H]1O [Rutin]	250 (≈ 409 µM)
CC(C)=CCCC(C)CCO (centres unmarked) [Citronellol]	500 (≈ 3200 µM)

Tested on: Staphylococcus aureus (ATCC 25923)
Test: MIC and MBC, broth microdilution
Format: cell-based
Details: Staphylococcus aureus, ATCC25923; S. aureus, 37 °C, 24 h; read-out: MIC
Description: as §1, §2

SMILES	MIC [µg/mL]
C[C@@H]1O[C@@H](OC[C@H]2O[C@@H](Oc3c(-c4ccc(O)c(O)c4)oc4cc(O)cc(O)c4c3=O)[C@H](O)[C@@H](O)[C@@H]2O)[C@H](O)[C@H](O)[C@H]1O [Rutin]	250 (≈ 409 µM)
CC(C)=CCCC(C)CCO (centres unmarked) [Citronellol]	125 (≈ 800 µM)

Same assay, conditions: Staphylococcus aureus, ATCC25923; S. aureus; read-out: MBC

SMILES	MBC [µg/mL]
C[C@@H]1O[C@@H](OC[C@H]2O[C@@H](Oc3c(-c4ccc(O)c(O)c4)oc4cc(O)cc(O)c4c3=O)[C@H](O)[C@@H](O)[C@@H]2O)[C@H](O)[C@H](O)[C@H]1O [Rutin]	500 (≈ 819 µM)
CC(C)=CCCC(C)CCO (centres unmarked) [Citronellol]	500 (≈ 3200 µM)

Tested on: Escherichia coli (ATCC 25922)
Test: MIC and MBC, broth microdilution
Format: cell-based
Details: Escherichia coli, ATCC25922; E. coli, 37 °C, 24 h; read-out: MIC
Description: as §1, §2

SMILES	MIC [µg/mL]
C[C@@H]1O[C@@H](OC[C@H]2O[C@@H](Oc3c(-c4ccc(O)c(O)c4)oc4cc(O)cc(O)c4c3=O)[C@H](O)[C@@H](O)[C@@H]2O)[C@H](O)[C@H](O)[C@H]1O [Rutin]	250 (≈ 409 µM)
CC(C)=CCCC(C)CCO (centres unmarked) [Citronellol]	250 (≈ 1600 µM)

Same assay, conditions: Escherichia coli, ATCC25922; E. coli; read-out: MBC

SMILES	MBC [µg/mL]
C[C@@H]1O[C@@H](OC[C@H]2O[C@@H](Oc3c(-c4ccc(O)c(O)c4)oc4cc(O)cc(O)c4c3=O)[C@H](O)[C@@H](O)[C@@H]2O)[C@H](O)[C@H](O)[C@H]1O [Rutin]	1000 (≈ 1640 µM)
CC(C)=CCCC(C)CCO (centres unmarked) [Citronellol]	500 (≈ 3200 µM)

Tested on: Salmonella enteritidis enteritidis (ATCC 14028)
Test: MIC and MBC, broth microdilution
Format: cell-based
Details: Salmonella enterica; S. enteritidis enteritidis, 37 °C, 24 h; read-out: MIC
Description: as §1, §2

SMILES	MIC [µg/mL]
C[C@@H]1O[C@@H](OC[C@H]2O[C@@H](Oc3c(-c4ccc(O)c(O)c4)oc4cc(O)cc(O)c4c3=O)[C@H](O)[C@@H](O)[C@@H]2O)[C@H](O)[C@H](O)[C@H]1O [Rutin]	125 (≈ 205 µM)
CC(C)=CCCC(C)CCO (centres unmarked) [Citronellol]	250 (≈ 1600 µM)

Same assay, conditions: Salmonella enterica; S. enteritidis enteritidis; read-out: MBC

SMILES	MBC [µg/mL]
C[C@@H]1O[C@@H](OC[C@H]2O[C@@H](Oc3c(-c4ccc(O)c(O)c4)oc4cc(O)cc(O)c4c3=O)[C@H](O)[C@@H](O)[C@@H]2O)[C@H](O)[C@H](O)[C@H]1O [Rutin]	500 (≈ 819 µM)
CC(C)=CCCC(C)CCO (centres unmarked) [Citronellol]	1000 (≈ 6400 µM)

Tested on: Fusobacterium nucleatum (ATCC 10953)
Test: MIC and MBC, broth microdilution
Format: cell-based
Details: Fusobacterium nucleatum, ATCC10953; F. nucleatum, anaerobic, 37 °C, 48 h; read-out: MIC
Description: as §1, §2

SMILES	MIC [µg/mL]
C[C@@H]1O[C@@H](OC[C@H]2O[C@@H](Oc3c(-c4ccc(O)c(O)c4)oc4cc(O)cc(O)c4c3=O)[C@H](O)[C@@H](O)[C@@H]2O)[C@H](O)[C@H](O)[C@H]1O [Rutin]	62 (≈ 102 µM)
CC(C)=CCCC(C)CCO (centres unmarked) [Citronellol]	250 (≈ 1600 µM)

Same assay, conditions: Fusobacterium nucleatum, ATCC10953; F. nucleatum; read-out: MBC

SMILES	MBC [µg/mL]
C[C@@H]1O[C@@H](OC[C@H]2O[C@@H](Oc3c(-c4ccc(O)c(O)c4)oc4cc(O)cc(O)c4c3=O)[C@H](O)[C@@H](O)[C@@H]2O)[C@H](O)[C@H](O)[C@H]1O [Rutin]	500 (≈ 819 µM)
CC(C)=CCCC(C)CCO (centres unmarked) [Citronellol]	1000 (≈ 6400 µM)

Tested on: Listeria ivanovii (ATCC 19119)
Test: MIC and MBC, broth microdilution
Format: cell-based
Details: Listeria ivanovii, ATCC19119; L. ivanovii, 37 °C, 24 h; read-out: MIC
Description: as §1, §2

SMILES	MIC [µg/mL]
C[C@@H]1O[C@@H](OC[C@H]2O[C@@H](Oc3c(-c4ccc(O)c(O)c4)oc4cc(O)cc(O)c4c3=O)[C@H](O)[C@@H](O)[C@@H]2O)[C@H](O)[C@H](O)[C@H]1O [Rutin]	500 (≈ 819 µM)
CC(C)=CCCC(C)CCO (centres unmarked) [Citronellol]	250 (≈ 1600 µM)

Same assay, conditions: Listeria ivanovii, ATCC19119; L. ivanovii; read-out: MBC

SMILES	MBC [µg/mL]
C[C@@H]1O[C@@H](OC[C@H]2O[C@@H](Oc3c(-c4ccc(O)c(O)c4)oc4cc(O)cc(O)c4c3=O)[C@H](O)[C@@H](O)[C@@H]2O)[C@H](O)[C@H](O)[C@H]1O [Rutin]	1000 (≈ 1640 µM)
CC(C)=CCCC(C)CCO (centres unmarked) [Citronellol]	500 (≈ 3200 µM)
